In patent US20220119354A1, “DIAMINO-SUBSTITUTED PYRIDINES AND PYRIMIDINES AS HERBICIDES” (FMC Corporation, priority 2019, published 2022):

Key:
Type in all cases: in vivo
[1] = tested on: rice (Oryza sativa); assay: Test B flooded paddy test, rice; settings: Flood, 250 g ai/ha, applied to paddy water, 2-leaf stage, visual evaluation after 13 to 15 d
Summary of the method: (§1)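 Plants grown to 2-leaf stage. Compounds applied directly into paddy water flooded 3 cm above soil, with that depth kept throughout. After 13–15 d in greenhouse, visual rating versus controls on a 0–100 scale (0 no effect, 100 complete control).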

[2] = tested on: kochia (Kochia scoparia); assay: Test A preemergence, kochia; settings: 0 to 100 scale; for Kochia plant response rating: 0 is no effect, 100 is complete control
Summary of the method: (§2)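 Steps: plant seeds in loam/sand; spray soil (pre) or seedlings at 1–2 leaves, 2–10 cm (post) with compound in solvent plus surfactant; keep in greenhouse ~10 d; score injury visually against untreated controls, 0–100.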

[3] = tested on: foxtail, green (Setaria viridis); assay: Test A preemergence, green foxtail; settings: 0 to 100 scale
Source text: (§3) Seeds of plant species selected from barnyardgrass (Echinochloa crus-galli), kochia (Kochia scoparia), ragweed (common ragweed, Ambrosia elatior), ryegrass, Italian (Lolium multiflorum), foxtail, giant (Setaria faberii), foxtail, green (Setaria viridis), and pigweed (Amaranthus retroflexus) were planted into a blend of loam soil and sand and treated preemergence with a directed soil spray using test chemicals formulated in a non-phytotoxic solvent mixture which included a surfactant.
(§4) At the same time, plants selected from these weed species and also wheat (Triticum aestivum), corn (Zea mays), blackgrass (Alopecurus myosuroides), and galium (catchweed bedstraw, Galium aparine) were planted in pots containing the same blend of loam soil and sand and treated with postemergence applications of test chemicals formulated in the same manner. Plants ranged in height from 2 to 10 cm and were in the one- to two-leaf stage for the postemergence treatment. Treated plants and untreated controls were maintained in a greenhouse for approximately 10 d, after which time all treated plants were compared to untreated controls and visually evaluated for injury. Plant response ratings, summarized in Table A, are based on a 0 to 100 scale where 0 is no effect and 100 is complete control. A dash (-) response means no test result.

[4] = tested on: wheat (Triticum aestivum); assay: Test A postemergence, wheat; settings: 0 to 100 scale
Summary of the method: as §2

[5] = tested on: ducksalad (Heteranthera limosa); assay: Test B flooded paddy test, ducksalad; settings: Flood, 250 g ai/ha, applied to paddy water, 2-leaf stage, visual evaluation after 13 to 15 d
Summary of the method: as §1

[6] = tested on: barnyardgrass (Echinochloa crus-galli); assay: Test B flooded paddy test, barnyardgrass; settings: Flood, 250 g ai/ha, applied to paddy water, 2-leaf stage, visual evaluation after 13 to 15 d
Summary of the method: as §1

[7] = tested on: barnyardgrass (Echinochloa crus-galli); assay: Test A postemergence, barnyardgrass; settings: 0 to 100 scale
Summary of the method: as §2

[8] = tested on: corn (Zea mays); assay: Test A postemergence, corn; settings: 0 to 100 scale
Summary of the method: as §2

[9] = tested on: kochia (Kochia scoparia); assay: Test A postemergence, kochia; settings: 0 to 100 scale
Summary of the method: as §2

[10] = tested on: sedge, umbrella (small-flower umbrella sedge, Cyperus difformis); assay: Test B flooded paddy test, umbrella sedge; settings: Flood, 250 g ai/ha, applied to paddy water, 2-leaf stage, visual evaluation after 13 to 15 d
Summary of the method: as §1

[11] = tested on: ryegrass, Italian (Lolium multiflorum); assay: Test A postemergence, Italian ryegrass; settings: 0 to 100 scale
Summary of the method: as §2

[12] = tested on: galium (catchweed bedstraw, Galium aparine); assay: Test A postemergence, galium; settings: 0 to 100 scale
Summary of the method: as §2

[13] = tested on: ragweed (common ragweed, Ambrosia elatior); assay: Test A preemergence, ragweed; settings: 0 to 100 scale; for Ragweed plant response rating: 0 is no effect, 100 is complete control
Summary of the method: as §2

[14] = tested on: blackgrass (Alopecurus myosuroides); assay: Test A postemergence, blackgrass; settings: 0 to 100 scale
Summary of the method: as §2

[15] = tested on: pigweed (Amaranthus retroflexus); assay: Test A preemergence, pigweed; settings: 0 to 100 scale; for Pigweed plant response rating: 0 is no effect, 100 is complete control
Summary of the method: as §2

[16] = tested on: barnyardgrass (Echinochloa crus-galli); assay: Test A preemergence, barnyardgrass; settings: 0 to 100 scale; for Barnyardgrass plant response rating: 0 is no effect, 100 is complete control
Summary of the method: as §2

[17] = tested on: ragweed (common ragweed, Ambrosia elatior); assay: Test A postemergence, ragweed; settings: 0 to 100 scale
Summary of the method: as §2

[18] = tested on: pigweed (Amaranthus retroflexus); assay: Test A postemergence, pigweed; settings: 0 to 100 scale
Summary of the method: as §2

[19] = tested on: ryegrass, Italian (Lolium multiflorum); assay: Test A preemergence, Italian ryegrass; settings: 0 to 100 scale; for Ryegrass, Italian plant response rating: 0 is no effect, 100 is complete control
Summary of the method: as §2

[20] = tested on: foxtail, green (Setaria viridis); assay: Test A postemergence, green foxtail; settings: 0 to 100 scale
Source text: as §3, §4

[21] = tested on: foxtail, giant (Setaria faberii); assay: Test A preemergence, giant foxtail; settings: 0 to 100 scale; for Foxtail, Giant plant response rating: 0 is no effect, 100 is complete control
Summary of the method: as §2

[22] = tested on: foxtail, giant (Setaria faberii); assay: Test A postemergence, giant foxtail; settings: 0 to 100 scale
Summary of the method: as §2

[23] = 125 g ai/ha, 0 no effect, 100 complete control
[24] = 500 g ai/ha, 0 no effect, 100 complete control

CC(CCc1ccccc1)Nc1ncc(C(F)(F)F)c(N)n1 (stereo not drawn) [Compound 23]
0: Plant response rating, Rice (0 to 100 scale, 0 is no effect, 100 is complete control) [1] | Plant response rating, Kochia ([2]; 125 g ai/ha) | Plant response rating, Kochia ([2]; 500 g ai/ha) | Plant response rating, Foxtail, Green ([3]; 125 g ai/ha) | Plant response rating, Foxtail, Green ([3]; 500 g ai/ha) | Plant response rating, Wheat ([4]; 125 g ai/ha) | Plant response rating, Wheat ([4]; 500 g ai/ha) | Plant response rating, Ducksalad (0 to 100 scale, 0 is no effect, 100 is complete control) [5] | Plant response rating, Barnyardgrass (0 to 100 scale, 0 is no effect, 100 is complete control) [6] | Plant response rating, Barnyardgrass ([7]; 125 g ai/ha) | Plant response rating, Barnyardgrass ([7]; 500 g ai/ha) | Plant response rating, Corn ([8]; 125 g ai/ha) | Plant response rating, Corn ([8]; 500 g ai/ha) | Plant response rating, Kochia ([9]; 125 g ai/ha) | Plant response rating, Kochia ([9]; 500 g ai/ha) | Plant response rating, Sedge, Umbrella (0 to 100 scale, 0 is no effect, 100 is complete control) [10] | Plant response rating, Ryegrass, Italian ([11]; 125 g ai/ha) | Plant response rating, Ryegrass, Italian ([11]; 500 g ai/ha) | Plant response rating, Galium ([12]; 125 g ai/ha) | Plant response rating, Galium ([12]; 500 g ai/ha) | Plant response rating, Ragweed ([13]; 125 g ai/ha) | Plant response rating, Ragweed ([13]; 500 g ai/ha) | Plant response rating, Blackgrass ([14]; 125 g ai/ha) | Plant response rating, Blackgrass ([14]; 500 g ai/ha) | Plant response rating, Pigweed ([15]; 125 g ai/ha) | Plant response rating, Barnyardgrass ([16]; 125 g ai/ha) | Plant response rating, Barnyardgrass ([16]; 500 g ai/ha) | Plant response rating, Ragweed ([17]; 125 g ai/ha) | Plant response rating, Ragweed ([17]; 500 g ai/ha) | Plant response rating, Pigweed ([18]; 125 g ai/ha) | Plant response rating, Pigweed ([18]; 500 g ai/ha) | Plant response rating, Ryegrass, Italian ([19]; 125 g ai/ha) | Plant response rating, Ryegrass, Italian ([19]; 500 g ai/ha) | Plant response rating, Foxtail, Green ([20]; 125 g ai/ha) | Plant response rating, Foxtail, Green ([20]; 500 g ai/ha)
50: Plant response rating, Pigweed ([15]; 500 g ai/ha)

C[C@@H](Nc1ncc(C(F)(F)F)c(N)n1)c1cc2ccccc2n1C [Compound 98]
40: Plant response rating, Kochia [9, 24] | Foxtail, Giant plant response rating ([21]; 500 g ai/ha) | Ryegrass, Italian plant response rating ([19]; 500 g ai/ha)
0: Plant response rating, Rice (0 to 100 scale, 0 is no effect, 100 is complete control) [1] | Kochia plant response rating ([2]; 125 g ai/ha) | Kochia plant response rating ([2]; 500 g ai/ha) | Plant response rating, Wheat [4, 23] | Plant response rating, Wheat [4, 24] | Plant response rating, Ducksalad (0 to 100 scale, 0 is no effect, 100 is complete control) [5] | Plant response rating, Barnyardgrass (0 to 100 scale, 0 is no effect, 100 is complete control) [6] | Plant response rating, Barnyardgrass [7, 23] | Plant response rating, Barnyardgrass [7, 24] | Plant response rating, Corn [8, 23] | Plant response rating, Corn [8, 24] | Plant response rating, Sedge, Umbrella (0 to 100 scale, 0 is no effect, 100 is complete control) [10] | Plant response rating, Ryegrass, Italian [11, 23] | Plant response rating, Ryegrass, Italian [11, 24] | Plant response rating, Blackgrass [14, 23] | Plant response rating, Blackgrass [14, 24] | Foxtail, Giant plant response rating ([21]; 125 g ai/ha) | Pigweed plant response rating ([15]; 125 g ai/ha) | Plant response rating, Foxtail, Giant [22, 23] | Plant response rating, Foxtail, Giant [22, 24]
30: Plant response rating, Ragweed [17, 23]
80: Ragweed plant response rating ([13]; 500 g ai/ha)
100: Pigweed plant response rating ([15]; 500 g ai/ha)
60: Plant response rating, Ragweed [17, 24] | Plant response rating, Pigweed [18, 23]
90: Plant response rating, Pigweed [18, 24]
70: Plant response rating, Galium [12, 24]
20: Plant response rating, Kochia [9, 23] | Ragweed plant response rating ([13]; 125 g ai/ha) | Barnyardgrass plant response rating ([16]; 125 g ai/ha) | Ryegrass, Italian plant response rating ([19]; 125 g ai/ha)
50: Plant response rating, Galium [12, 23] | Barnyardgrass plant response rating ([16]; 500 g ai/ha)

CC(Nc1ncc(C(F)(F)F)c(N)n1)c1csc2ccccc12 (stereo not drawn) [Compound 40]
60: Kochia plant response rating ([2]; 125 g ai/ha) | Plant response rating, Kochia ([2]; 500 g ai/ha) | Plant response rating, Barnyardgrass ([7]; 500 g ai/ha) | Plant response rating, Galium ([12]; 125 g ai/ha) | Plant response rating, Ragweed ([17]; 500 g ai/ha)
100: Plant response rating, Ragweed ([13]; 500 g ai/ha) | Pigweed plant response rating ([15]; 125 g ai/ha) | Plant response rating, Pigweed ([15]; 500 g ai/ha) | Plant response rating, Pigweed ([18]; 500 g ai/ha) | Plant response rating, Ryegrass, Italian ([19]; 500 g ai/ha)
30: Plant response rating, Ryegrass, Italian ([11]; 125 g ai/ha) | Barnyardgrass plant response rating ([16]; 125 g ai/ha) | Plant response rating, Ragweed ([17]; 125 g ai/ha)
50: Plant response rating, Kochia ([9]; 125 g ai/ha)
90: Plant response rating, Kochia ([9]; 500 g ai/ha) | Plant response rating, Galium ([12]; 500 g ai/ha) | Ragweed plant response rating ([13]; 125 g ai/ha) | Plant response rating, Foxtail, Giant ([21]; 500 g ai/ha)
20: Plant response rating, Ducksalad (0 to 100 scale, 0 is no effect, 100 is complete control) [5] | Plant response rating, Barnyardgrass (0 to 100 scale, 0 is no effect, 100 is complete control) [6] | Plant response rating, Foxtail, Giant ([22]; 500 g ai/ha) | Ryegrass, Italian plant response rating ([19]; 125 g ai/ha)
80: Plant response rating, Barnyardgrass ([16]; 500 g ai/ha) | Plant response rating, Pigweed ([18]; 125 g ai/ha)
40: Plant response rating, Sedge, Umbrella (0 to 100 scale, 0 is no effect, 100 is complete control) [10]
10: Plant response rating, Corn ([8]; 500 g ai/ha) | Plant response rating, Blackgrass ([14]; 500 g ai/ha) | Foxtail, Giant plant response rating ([21]; 125 g ai/ha)
0: Plant response rating, Rice (0 to 100 scale, 0 is no effect, 100 is complete control) [1] | Plant response rating, Wheat ([4]; 125 g ai/ha) | Plant response rating, Wheat ([4]; 500 g ai/ha) | Plant response rating, Barnyardgrass ([7]; 125 g ai/ha) | Plant response rating, Corn ([8]; 125 g ai/ha) | Plant response rating, Ryegrass, Italian ([11]; 500 g ai/ha) | Plant response rating, Blackgrass ([14]; 125 g ai/ha) | Plant response rating, Foxtail, Giant ([22]; 125 g ai/ha)
